Measured values as given in US7091174B2, “Caloxins” (McMaster University, priority 2000, dated 2006).
Ends that are not written are not given here.

Experiments:
[1] = tested on: pig coronary artery; assay: Endothelium dependent relaxation of pig coronary artery pre-contracted with KCl; details: pig coronary artery precontracted with KCl, FIG. 3
[2] = molecular target: T1, erythrocyte leaky ghost Ca^2+—Mg^2+-ATPase (PM Ca^2+ pump) (Homo sapiens, UniProt P23634); assay: Ca2+-Mg2+-ATPase assay with human erythrocyte leaky ghosts (fluorometric coupled enzyme assay); format: biochemical
T1 construct: Human erythrocyte leaky ghosts (Jarrett et al. (1978)) were assayed for ATPase; from tissue; host or cells: human erythrocyte leaky ghosts prepared from human blood
Method: FIG. 1A is a graph showing Ca^2+—Mg^2+-ATPhase inhibition by caloxin 2A1. Human erythrocyte leaky ghosts (Jarrett et al. (1978)) were assayed for ATPase as described previously (Niggli et al. (1981); Grover (1988)) but by fluorometry. The drawn curve is from a total of 32 data points. Error bars where shown are SEM values.
The present invention includes all caloxins isolated according to the method of the invention. Caloxins can be tested for their ability to inhibit the plasma membrane Ca^2+-pump using various assays. In particular, PM Ca^2+ pump is a Ca^2+—Mg^2+-ATPase that binds ATP in presence of Ca^2+ to form an acylphosphate which is then hydrolysed upon Ca^2+ translocation (Guerini (1998)). The effect of caloxins on PM Ca^2+ pump can be tested in two assays using human erythrocyte leaky ghosts: Ca^2+—Mg^2+-ATPase and acylphosphate formation. In particular the inventors have shown that caloxin 2A-1 inhibits erythrocyte leaky ghost Ca^2+—Mg^2+-ATPase (FIG. 1A) producing 50% inhibition at 0.4±0.1 mM. Caloxin 2A-1 inhibits the PM Ca^2+-pump selectively. At a concentration of 0.9 mM, caloxin 2A1 inhibits the erythrocyte ghost Ca^2+—Mg^2+-ATPase by 78±4% but with no effect on Mg^2+-ATPase or Na^+—K^+-ATPase in the ghosts or the Ca^2+—Mg^2+-ATPase in skeletal muscle sarcoplasmic reticulum (FIG. 1B). The inhibition is selective to caloxin 2A1 because 0.9 mM of a peptide with randomized caloxin 2A1 sequence (SWSSFPGSGGVSNPN-amide, SEQ.ID.NO.5) has no effect (FIG. 1B) neither does the large mixture of peptides contained in the casein pancreatic hydrolysate (data not shown). Thus, caloxin 2A1 is selective in that it inhibits the PM Ca^2+-pump and not other ATPases. […] Caloxin 2A1 was selected by binding to a PMCA1 sequence but it inhibits PM Ca^2+-pump in erythrocyte ghosts which express mainly PMCA4. This finding is consistent with the high degree of similarity between sequences of PMCA genes in this domain (Swiss Protein Bank accession numbers P20020, Q01814, Q16720, P23634) although we have not ruled out that caloxin 2A1 has different affinities for each isoform. The second PM Ca^2+-pump assay consisted of Ca^2+-dependent formation of the acid stable 140 kDa acylphosphate intermediate from ^32P-γ-ATP in erythrocyte leaky ghosts.
1.2. Ca^2+—Mg^2+-ATPase assay with human erythrocyte leaky ghosts: A major hurdle was the lack of an appropriate assay. The difficulties were: (a) calmodulin needed for the PM Ca^2+ pump activity binds on the cytosolic surface of the pump protein and caloxins by definition bind on the outside surface, (b) most tissues have very active ecto-Mg^2+-ATPase and an ER Ca^2+—Mg^2+-ATPase—the latter can be inhibited by thapsigargin but the former poses a major problem. Erythrocyte ghosts contain mostly plasma membrane. Finally we used human erythrocyte ghosts which have low ecto-Mg^2+-ATPase. Fluorometric coupled enzyme assays are more sensitive. We purchased microcuvettes (100–150 μl) for our fluorometer (SPEX Fluorolog 112) with a heated chamber (37° C.) and made the appropriate cuvette adapter. We first monitor basal Mg^2+-ATPhase as slope for the disappearance of NADH fluorescence (ex=340, em=440 nm) in a solution containing 0.2–0.4 mg ghost protein, 0.1 mM ouabain, 100 mM NaCl, 20 mM KCl, 6 mM MgCl2, 30 mM imidazole-HCl pH 7.0, 0.5 mM EDTA, 0.6 mM NADH, 1 mM pyruvate enol phosphate, excess pyruvate kinase-[…], 0.5 mM ATP, 0.5 mM EGTA and 4 ug/ml calmodulin. […] Na^+—K^+-ATPase can be monitored without CaCl2 and ouabain.

[3] = molecular target: T2, PM Ca^2+-pump 140 kDa acylphosphate intermediate (Homo sapiens, UniProt P23634); assay: Ca2+-dependent acylphosphate formation from 32P-gamma-ATP in erythrocyte leaky ghosts; format: biochemical; details: 3.4 mM peptide, FIG. 1C
T2 construct: from tissue; host or cells: human erythrocyte leaky ghosts
Method: FIG. 1C is gel showing acylphosphate formation with 3.4 mM caloxin 2A1 or a random peptide. The acylphosphate reaction was carried out and samples analyzed by acid gel electrophoresis as previously described (Grover et al. (1988); Wuytack et al. (1984)). EGTA=1 mM, and CaCl2=0.05 mM.
(§1) The present invention includes all caloxins isolated according to the method of the invention. Caloxins can be tested for their ability to inhibit the plasma membrane Ca^2+-pump using various assays. In particular, PM Ca^2+ pump is a Ca^2+—Mg^2+-ATPase that binds ATP in presence of Ca^2+ to form an acylphosphate which is then hydrolysed upon Ca^2+ translocation (Guerini (1998)). The effect of caloxins on PM Ca^2+ pump can be tested in two assays using human erythrocyte leaky ghosts: Ca^2+—Mg^2+-ATPase and acylphosphate formation. In particular the inventors have shown that caloxin 2A-1 inhibits erythrocyte leaky ghost Ca^2+—Mg^2+-ATPase (FIG. 1A) producing 50% inhibition at 0.4±0.1 mM. Caloxin 2A-1 inhibits the PM Ca^2+-pump selectively. At a concentration of 0.9 mM, caloxin 2A1 inhibits the erythrocyte ghost Ca^2+—Mg^2+-ATPase by 78±4% but with no effect on Mg^2+-ATPase or Na^+—K^+-ATPase in the ghosts or the Ca^2+—Mg^2+-ATPase in skeletal muscle sarcoplasmic reticulum (FIG. 1B). […]

[4] = tested on: PMCA2b; assay: Ca2+-Mg2+-ATPase activity in microsomes from SF9 cells expressing PMCA2; format: biochemical; details: 1.87 mM; two experiments
From the text: (§2) PM Ca^2+-pump isoforms are encoded by 4 different genes. The inventors determined the effects of caloxin 2A1 on different isoforms. Cos M6 cells were transfected with this DNA using Fugene (purchased from Roche). Microsomes from SF9 cells expressing PMCA2 were a gift from Dr. A. Filoteo.
(§3) PMCA4 plasmid was transfected into COS-M6 cells. Thirty six to 48 hr later, microsomes were made from these cells and overexpression of the protein was confirmed using Western Blot. The Ca^2+—Mg^2+-ATPase activity in the microsomes was determined. The assay solutions included the following additional reagents: 0.05% Triton X-100, 5 mM sodium azide and 10 uM cyclopiazonic acid. Results: In a total of 22 determinations, the inhibition produced by 0.46,0.94 and 1.87 mM caloxin 2A1 on PMCA4 was 29, 47 and 58%, respectively.

[5] = tested on: Na^+—K^+-ATPase in the ghosts; assay: Na+-K+-ATPase in erythrocyte ghosts; format: biochemical, human; details: 0.9 mM
From the text: (§4) FIG. 1B is a bar graph showing the selectivity of caloxin 2A1 for inhibition of PM Ca^2+—Mg^2+-ATPase using caloxin 2A1 or a random peptide (RP). G=ghosts and S=skeletal muscle sarcoplasmic reticulum, Type of ATPhase activity monitored is shown as Ca^2+—Mg^2+, Mg^2+ or Na^+—K^+-ATPase.
(§5) The present invention includes all caloxins isolated according to the method of the invention. Caloxins can be tested for their ability to inhibit the plasma membrane Ca^2+-pump using various assays. In particular, PM Ca^2+ pump is a Ca^2+—Mg^2+-ATPase that binds ATP in presence of Ca^2+ to form an acylphosphate which is then hydrolysed upon Ca^2+ translocation (Guerini (1998)). The effect of caloxins on PM Ca^2+ pump can be tested in two assays using human erythrocyte leaky ghosts: Ca^2+—Mg^2+-ATPase and acylphosphate formation. […]
(§6) 1.2. […] We first monitor basal Mg^2+-ATPhase as slope for the disappearance of NADH fluorescence (ex=340, em=440 nm) in a solution containing 0.2–0.4 mg ghost protein, 0.1 mM ouabain, 100 mM NaCl, 20 mM KCl, 6 mM MgCl2, 30 mM imidazole-HCl pH 7.0, 0.5 mM EDTA, 0.6 mM NADH, 1 mM pyruvate enol phosphate, excess pyruvate kinase-[…], 0.5 mM ATP, 0.5 mM EGTA and 4 ug/ml calmodulin. […] Na^+—K^+-ATPase can be monitored without CaCl2 and ouabain.

[6] = tested on: T3, Ca^2+—Mg^2+-ATPase in skeletal muscle sarcoplasmic reticulum; assay: Ca2+-Mg2+-ATPase in skeletal muscle sarcoplasmic reticulum; format: biochemical; details: 0.9 mM
T3 construct: G=ghosts and S=skeletal muscle sarcoplasmic reticulum; from tissue; host or cells: skeletal muscle sarcoplasmic reticulum
From the text: as §4, §1

[7] = molecular target: T4, PMCA4 (Homo sapiens, UniProt P23634); assay: Ca2+-Mg2+-ATPase activity in microsomes of COS-M6 cells transfected with PMCA4; format: biochemical; details: read-out: inhibition of PMCA4 Ca^2+—Mg^2+-ATPase
T4 construct: expressed in transfected cells; host or cells: COS-M6 cells, microsomes
T4 sequence (P23634 1-1241): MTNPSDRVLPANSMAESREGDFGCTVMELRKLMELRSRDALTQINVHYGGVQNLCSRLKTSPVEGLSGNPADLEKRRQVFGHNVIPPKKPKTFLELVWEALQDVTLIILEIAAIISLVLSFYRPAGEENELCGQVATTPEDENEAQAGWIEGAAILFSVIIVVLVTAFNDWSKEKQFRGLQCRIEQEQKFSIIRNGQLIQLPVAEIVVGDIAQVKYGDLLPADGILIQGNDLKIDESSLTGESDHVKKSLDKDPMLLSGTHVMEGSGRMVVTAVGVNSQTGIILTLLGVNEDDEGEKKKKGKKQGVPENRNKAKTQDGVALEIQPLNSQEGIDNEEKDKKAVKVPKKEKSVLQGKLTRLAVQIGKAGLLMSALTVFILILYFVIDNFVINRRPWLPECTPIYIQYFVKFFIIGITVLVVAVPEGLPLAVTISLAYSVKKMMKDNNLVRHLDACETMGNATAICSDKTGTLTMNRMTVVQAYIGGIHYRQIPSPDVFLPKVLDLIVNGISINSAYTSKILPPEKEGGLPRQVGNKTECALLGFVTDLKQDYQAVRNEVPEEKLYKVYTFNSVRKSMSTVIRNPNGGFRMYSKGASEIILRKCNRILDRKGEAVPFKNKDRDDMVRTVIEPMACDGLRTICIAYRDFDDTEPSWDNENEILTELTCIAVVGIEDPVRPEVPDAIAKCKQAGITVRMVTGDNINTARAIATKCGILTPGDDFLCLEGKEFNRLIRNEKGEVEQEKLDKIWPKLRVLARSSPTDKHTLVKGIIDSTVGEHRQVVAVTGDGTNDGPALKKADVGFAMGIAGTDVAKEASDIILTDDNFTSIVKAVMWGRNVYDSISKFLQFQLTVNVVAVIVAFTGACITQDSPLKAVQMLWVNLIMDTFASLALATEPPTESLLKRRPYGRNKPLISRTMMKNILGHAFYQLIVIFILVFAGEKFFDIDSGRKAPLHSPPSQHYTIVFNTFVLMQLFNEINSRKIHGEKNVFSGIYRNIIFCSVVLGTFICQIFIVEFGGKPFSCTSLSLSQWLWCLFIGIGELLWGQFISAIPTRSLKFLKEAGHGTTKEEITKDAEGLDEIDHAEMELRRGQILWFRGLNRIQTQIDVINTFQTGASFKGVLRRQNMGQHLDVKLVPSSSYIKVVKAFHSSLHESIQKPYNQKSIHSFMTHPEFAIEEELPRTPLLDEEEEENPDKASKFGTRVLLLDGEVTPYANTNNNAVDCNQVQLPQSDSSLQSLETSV
From the text: as §2, §3

[8] = tested on: Mg^2+-ATPase in the ghosts; assay: Mg2+-ATPase in erythrocyte ghosts; format: biochemical, human; details: 0.9 mM
From the text: as §4, §5, §6

[9] = tested on: rat aortic rings; assay: Endothelium dependent relaxation of rat aorta rings precontracted with phenylephrine; details: precontracted with 0.5 μM phenylephrine, 0.34 mM caloxin 2A1, reversed by L-NAME
Method: Rat aorta rings were hung in organ bath as previously described. The rings were contracted with submaximum (0.5 μM) phenylephrine before adding 0.34 mM caloxin 2A1 and 0.1 mM L-nitroarginylmethyl ester) as shown. Each experiment was replicated at least four times.
Inhibiting the PM Ca^2+ pump in vascular endothelium should increase cytosolic Ca^2+, thereby activating endothelial nitric oxide synthase to relax arteries (Rees et al. (1990); Sato et al. (1990)). […] Thus caloxin 2A1 produced the biological effect in the endothelium which was expected from its inhibiting PM Ca^2+-pump.
1.3. […] We anesthetized a rats by methoxyfluorane (Metofane) inhalation and removed its thoracic aorta as 3 mm rings. These tissues relax to 1 μM carbachol after they have been contracted with phenylephrine (0.5 to 2 μM). We initially tried to do these experiments in Na^+-free solution but the tissues gave very poor contractions to phenylephrine. In Na^+-free solution, the tissues contracted to 20–80 mM KCl but relaxation with carbachol was poor. We reverted to using phenylephrine but in Na^+-containing Krebs' solution.

T2 sequence (P23634 1-1205 isoform P23634-6): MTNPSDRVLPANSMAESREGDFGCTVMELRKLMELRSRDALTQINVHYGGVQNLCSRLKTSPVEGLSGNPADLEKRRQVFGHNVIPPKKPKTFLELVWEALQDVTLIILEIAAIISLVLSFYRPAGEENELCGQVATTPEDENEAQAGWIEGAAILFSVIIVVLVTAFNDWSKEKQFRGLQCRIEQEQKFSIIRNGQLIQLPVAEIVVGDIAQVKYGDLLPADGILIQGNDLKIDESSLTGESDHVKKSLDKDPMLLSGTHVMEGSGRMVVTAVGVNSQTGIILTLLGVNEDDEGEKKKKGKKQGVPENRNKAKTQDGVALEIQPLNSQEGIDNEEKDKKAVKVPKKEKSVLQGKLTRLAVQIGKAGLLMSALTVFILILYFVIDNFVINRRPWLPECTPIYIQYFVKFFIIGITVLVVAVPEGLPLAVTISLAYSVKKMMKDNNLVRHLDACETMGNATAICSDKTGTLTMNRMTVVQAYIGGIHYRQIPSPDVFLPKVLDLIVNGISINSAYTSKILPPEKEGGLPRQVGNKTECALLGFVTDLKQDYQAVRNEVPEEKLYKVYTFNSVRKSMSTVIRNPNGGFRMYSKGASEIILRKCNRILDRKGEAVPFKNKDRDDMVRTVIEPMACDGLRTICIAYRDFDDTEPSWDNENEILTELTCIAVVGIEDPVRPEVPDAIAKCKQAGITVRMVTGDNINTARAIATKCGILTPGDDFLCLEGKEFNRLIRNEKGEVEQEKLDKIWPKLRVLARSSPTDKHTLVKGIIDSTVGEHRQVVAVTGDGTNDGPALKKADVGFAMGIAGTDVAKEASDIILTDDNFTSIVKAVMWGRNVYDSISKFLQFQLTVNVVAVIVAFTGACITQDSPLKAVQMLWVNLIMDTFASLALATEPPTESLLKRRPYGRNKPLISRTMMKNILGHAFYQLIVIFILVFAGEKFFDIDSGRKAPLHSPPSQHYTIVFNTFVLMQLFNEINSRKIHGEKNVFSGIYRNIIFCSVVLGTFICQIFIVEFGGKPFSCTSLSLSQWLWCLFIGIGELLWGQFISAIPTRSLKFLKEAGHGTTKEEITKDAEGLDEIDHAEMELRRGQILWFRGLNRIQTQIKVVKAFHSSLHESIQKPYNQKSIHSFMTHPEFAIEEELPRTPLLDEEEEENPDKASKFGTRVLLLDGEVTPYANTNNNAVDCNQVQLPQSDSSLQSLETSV
T3 sequence (O14983 whole entry): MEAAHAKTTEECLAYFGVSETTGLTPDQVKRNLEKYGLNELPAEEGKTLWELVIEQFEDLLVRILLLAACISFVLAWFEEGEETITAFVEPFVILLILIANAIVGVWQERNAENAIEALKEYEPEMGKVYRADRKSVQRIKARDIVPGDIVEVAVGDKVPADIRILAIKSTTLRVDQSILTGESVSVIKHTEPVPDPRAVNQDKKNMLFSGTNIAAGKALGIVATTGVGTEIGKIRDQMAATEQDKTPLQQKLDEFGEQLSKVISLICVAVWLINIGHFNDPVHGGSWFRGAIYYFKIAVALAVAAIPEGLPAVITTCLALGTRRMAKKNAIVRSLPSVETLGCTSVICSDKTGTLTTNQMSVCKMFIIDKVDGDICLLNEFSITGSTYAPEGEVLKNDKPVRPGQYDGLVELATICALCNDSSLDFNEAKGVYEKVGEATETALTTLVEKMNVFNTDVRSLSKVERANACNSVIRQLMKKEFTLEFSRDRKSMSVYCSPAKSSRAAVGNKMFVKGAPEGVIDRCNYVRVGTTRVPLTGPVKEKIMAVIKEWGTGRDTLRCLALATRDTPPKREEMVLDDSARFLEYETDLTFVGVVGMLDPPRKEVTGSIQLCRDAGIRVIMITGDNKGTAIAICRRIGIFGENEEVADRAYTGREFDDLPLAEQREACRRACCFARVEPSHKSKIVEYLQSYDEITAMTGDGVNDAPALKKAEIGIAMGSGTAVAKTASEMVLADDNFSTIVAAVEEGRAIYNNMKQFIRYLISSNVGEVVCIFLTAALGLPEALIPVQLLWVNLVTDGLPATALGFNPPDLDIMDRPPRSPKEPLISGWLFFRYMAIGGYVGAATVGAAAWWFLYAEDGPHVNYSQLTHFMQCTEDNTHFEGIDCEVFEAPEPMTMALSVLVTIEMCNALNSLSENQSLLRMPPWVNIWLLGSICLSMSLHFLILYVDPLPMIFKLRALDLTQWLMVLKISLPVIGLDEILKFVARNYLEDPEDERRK

Substance | endothelium dependent relaxation of coronary arteries [1] | endothelium dependent relaxation of coronary arteries ([1]; listed as Caloxin 3A1) | effect on erythrocyte ghost Ca^2+—Mg^2+-ATPase (in words) ([2]; concentration not given) | inhibition of acylphosphate formation [3] | effect on erythrocyte ghost Ca^2+—Mg^2+-ATPase (in words) ([2]; 0.9 mM peptide, FIG. 1B) | average inhibition of PMCA2b [4] [%] | effect on Na^+—K^+-ATPase in the ghosts [5] | effect on Ca^2+—Mg^2+-ATPase in skeletal muscle sarcoplasmic reticulum [6] | inhibition at 460 µM ([7]; 0.46 mM) [%] | inhibition at 940 µM ([7]; 0.94 mM) [%] | inhibition at 1870 µM ([7]; 1.87 mM) [%] | effect on Mg^2+-ATPase in the ghosts [8] | inhibition of erythrocyte ghost Ca^2+—Mg^2+-ATPase ([2]; 0.9 mM peptide) [%] | IC50 ([2]; human erythrocyte leaky ghosts, read-out: concentration producing 50% inhibition of erythrocyte leaky ghost Ca^2+—Mg^2+-ATPase) [µM] | relaxation of rat aortic rings [9] | relaxation of rat aortic rings ([9]; listed as Caloxin 2A1)
Acetyl-DSHINNEPSRRRGGGK (Ac-DSHINNEPSRRRGGGK; listed as Homo sapiens) [caloxin 3A1, peptide isolated by phage display screening against PMCA874] | endothelium dependent relaxation | produces an endothelium dependent relaxation | inhibits | – | – | – | – | – | – | – | – | – | – | – | – | –
SWSSFPGSGGVSNPN-amide (SWSSFPGSGGVSNPN-NH2; listed as Homo sapiens) [randomized peptide, reference compound] | – | – | – | does not | no effect | – | – | – | – | – | – | – | – | – | – | –
VSNSNWPSFPSSGGG-NH2 [caloxin 2A1, VSNSNWPSFPSSGGG-amide] | – | – | – | inhibits the acylphosphate formation | significant (p<0.05) inhibition | 46 | no effect | no effect | 29 | 47 | 58 | no effect | 78±4 | 400 ± 100 | produced a relaxation | relaxed the aortic rings
